Where two headings read alike, the source gives them in different places. Marks after values point to notes of the source that are not given here.
Biological target: T1, α-amylase from porcine pancreas (Sus scrofa, UniProt P00690)
T1 construct: A saline suspension of α-amylase from porcine pancreas; purchased Sigma Aldrich (Steinheim, Germany) Lot #SLBN9170V (catalogue number not given); host or cells: porcine pancreas (tissue-derived)
T1 sequence (P00690 16-511): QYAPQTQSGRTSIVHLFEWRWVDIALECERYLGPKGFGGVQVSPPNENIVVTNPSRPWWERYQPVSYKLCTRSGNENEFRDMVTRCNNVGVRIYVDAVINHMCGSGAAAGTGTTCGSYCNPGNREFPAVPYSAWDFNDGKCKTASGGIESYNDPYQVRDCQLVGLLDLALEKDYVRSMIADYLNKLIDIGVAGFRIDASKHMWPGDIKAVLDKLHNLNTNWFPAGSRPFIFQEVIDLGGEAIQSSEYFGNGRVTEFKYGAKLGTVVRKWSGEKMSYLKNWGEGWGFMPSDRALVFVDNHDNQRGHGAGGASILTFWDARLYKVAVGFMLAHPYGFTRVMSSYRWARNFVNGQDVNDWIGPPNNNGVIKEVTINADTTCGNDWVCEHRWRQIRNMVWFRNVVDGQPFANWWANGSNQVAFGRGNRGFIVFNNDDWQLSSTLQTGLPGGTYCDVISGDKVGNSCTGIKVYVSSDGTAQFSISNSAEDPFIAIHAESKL
Assay: α-amylase enzyme activity assay, GalG2CNP conversion, UV/Vis detection of CNP at 405 nm
Format: biochemical
Conditions: for IC50: read-out: IC50 (Cheng−Prussoff, Equation (9)); for Kmapp / vmaxapp: Michaelis Menten fit
Protocol: The enzyme activity assay, […], was established by Homoki and co-workers and already used by the authors to evaluate the inhibitory strength of different phenolic structures. To enable the evaluation of the result obtained in the present study compared to the non-anthocyanin phenolics investigated previously, the assay conditions were identical. In short, to 12 different GalG2CNP concentrations ([S] = 0−2000 µM) in MES^+ buffer, inhibitor [I] and 50 µL enzyme solution (c = 1.51 units/~100 pM, on the basis of supplier information) were mixed in a microtiter plate (Greiner BioOne, Frickenhausen, Germany; transparent, F-bottom). For blanks, the enzyme solution was substituted with MES^+ buffer. The final volume per well was 250 µL. To quantify the reaction product, a linear calibration with eight different CNP concentrations in the range of 0−35 µM was performed for each plate. Dilutions of the anthocyanin stock solutions (0.1% HCl) were equilibrated at pH 6.1 for one hour. Final inhibitor concentrations were limited due to its strong absorption at 405 nm to 12.5, 25, and 50 µM. For each anthocyanin structure, the assay was conducted on two to three different days with freshly prepared stocks of substrate, enzyme, and inhibitor.
In addition to the Michaelis Menten constant (Km) and the maximal conversion rate (vmax) values (Table S1), inhibition constants (Kic, Kiu) were calculated by fitting the data by two approaches: (i) According to the mixed inhibition equation (Equation (4)) or competitive inhibition equation (Equation (5)), applying an optimal global fit containing data from all inhibitor concentrations including the control ([I] = 0 µM); and (ii) by an independent fit according to the Michaelis Menten equation (Equation (6)), providing the apparent values Km^app and Vmax^app (Table S2) for each inhibitor concentration, which were then used to calculate the inhibition constants (Equations (7) and (8)). (4) v0= vmax/Km/[S] · (1+[I]/Kic)+(1+[I]/Kiu), (5) v0=vmax/Km/[S] · ( 1+[I]/Kic)+1, (6) v0=vmax · [S]/Km+[S], (7) Kic=vmax^app/Km^app · [I]/vmax/Km−vmax^app/Km^app, (8) Kiu=vmax^app · [I]/vmax− vmax^app.
The IC50 values of the different anthocyanins were derived from the inhibition constants for different substrate concentrations by the Cheng−Prusoff equation (Equation (9)). (9) IC50=(Km+[S])/Km/Kic+[S]/Kiu.
• KM: Michaelis Menten constant (µM) • vmax: Maximal conversion rate of the uninhibited reaction (µM/min) • v0: Observed conversion rate at given substrate and inhibitor concentration (µM/min) • [S]: Substrate concentration • [I]: Inhibitor concentration • Kic: Inhibitor constant, reflecting the competitive inhibition in the equation (µM) • Kiu: Inhibitor constant, reflecting the uncompetitive inhibition in the equation (µM) • vmax^app: Calculated maximal conversion rate, when the Michaelis Menten equation is used on an inhibited curve (µM/min) • Km^app: Calculated Michaelis Menten constant, when the Michaelis Menten equation is used on an inhibited curve (µM) • IC50: Half maximal inhibitory concentration (inhibitor concentration needed to achieve 50% inhibition; it is dependent on the substrate concentration) (µM)
For data analyses and calculations, Origin 2018b (OriginLab, software extension Enzyme Kinetics) was used. The Levenberg−Marquardt algorithm procedure was chosen for iteration. All assays were performed in two independent replicates at different dates. Values are expressed in arithmetic means ± average deviation (AD). The statistical significance and differences between groups were analyzed by one-way analysis of variance (ANOVA), followed by Tukey’s test. Differences were considered significant when p < 0.05. Data were processed using Microsoft Excel® (2010).

IC50 ((i) Kic and Kiu by global fit, [S] 10 µM): 112 ± 40 µM | IC50 ((i) Kic and Kiu by global fit, [S] 100 µM): 134 ± 46 µM | IC50 ((i) Kic and Kiu by global fit, [S] 10^3 µM): 209 ± 65 µM | IC50 ((i) Kic and Kiu by global fit, [S] 10^6 µM): 258 ± 78 µM | Kic/Kiu ((i) global fit, Equation (4)): 0.42 ± 0.23 ^a | Ki ((i) global fit, mixed inhibition Equation (4), read-out: Kic): 109 ± 39 µM | Ki ((i) global fit, mixed inhibition Equation (4), read-out: Kiu): 258 ± 78 µM | IC50 ((ii) Kic and Kiu by independent fit, [S] 10 µM): 121 ± 42 µM | IC50 ((ii) Kic and Kiu by independent fit, [S] 100 µM): 142 ± 49 µM | IC50 ((ii) Kic and Kiu by independent fit, [S] 10^3 µM): 212 ± 69 µM | IC50 ((ii) Kic and Kiu by independent fit, [S] 10^6 µM): 254 ± 82 µM | Ki ((ii) independent Michaelis Menten fit (Equation (6)), calculation by Equation (7), read-out: Kic): 118 ± 42 µM | Ki ((ii) independent Michaelis Menten fit (Equation (6)), calculation by Equation (8), read-out: Kiu): 254 ± 82 µM | Kic/Kiu ((ii) independent fit, Equations (7) and (8)): 0.43 ± 0.04 **^a | Kmapp (inhibitor c 25 µM): 242 ± 8 µM | vmaxapp (inhibitor c 25 µM): 0,74 ± 0,14 µM/min | Kmapp (inhibitor c 50 µM): 256 ± 7 µM | vmaxapp (inhibitor c 50 µM): 0,65 ± 0,05 µM/min | Kmapp (inhibitor c 12,5 µM): 211 ± 15 µM | vmaxapp (inhibitor c 12,5 µM): 0,77 ± 0,12 µM/min | Ki (from apparent values, inhibitor c 25 µM, read-out: Kic): 107 ± 15 µM | Ki (from apparent values, inhibitor c 25 µM, read-out: Kiu): 250 µM | Ki (from apparent values, inhibitor c 50 µM, read-out: Kic): 112 ± 45 µM | Ki (from apparent values, inhibitor c 50 µM, read-out: Kiu): 262 ± 92 µM | Ki (from apparent values, inhibitor c 12,5 µM, read-out: Kic): 180 µM | Ki (from apparent values, inhibitor c 12,5 µM, read-out: Kiu): 360 µM | Ki (mean over inhibitor c 12,5, 25, 50 µM (Supplementary 2), read-out: Kic mean ± SD): 133 ± 40 µM | Ki (mean over inhibitor c 12,5, 25, 50 µM (Supplementary 2), read-out: Kiu mean ± SD): 290 ± 61 µM
SMILES: COc1cc(-c2[o+]c3cc(O)cc(O)c3cc2O[C@@H]2O[C@H](CO)[C@@H](O)[C@H](O)[C@H]2O)ccc1O [Peo-glc, peonidin-3-glucoside]

Source: paper PMC7142633, “Impact of B-Ring Substitution and Acylation with Hydroxy Cinnamic Acids on the Inhibition of Porcine α-Amylase by Anthocyanin-3-Glycosides” (Foods, 2020)
